Assay results: ChEMBL document CHEMBL1150533, “Inhibitors of the adenovirus type 2 proteinase based on substrate-like tetrapeptide nitriles” (Bioorg Med Chem Lett, 1995)
Peptide text beside a SMILES is read from it. * marks the point of attachment. Cbz = O=C(OCc1ccccc1)*; Boc = CC(C)(C)OC(=O)*; N(Me)OMe = CON(C)*; OtBu = CC(C)(C)O*; NMeEt = CCN(C)*

How the values were obtained:
Format in all cases: functional
Human adenovirus 2 [1] = experiment: Inhibitory activity against Adenovirus type 2 proteinase; set-up: concentration or dose not given beside the values
Human adenovirus 2 [2] = experiment: Compound was tested for inhibition of Adenovirus type 2 proteinase; conditions: Human mastadenovirus C
Human adenovirus 2 [3] = experiment: Compound was tested for noncompetitive inhibition of Adenovirus type 2 proteinase
Human adenovirus 2 [4] = experiment: Compound was tested for inhibition of Adenovirus type 2 proteinase; showed no inhibitory activity; set-up: concentration or dose not given beside the values
Human adenovirus 2 [5] = experiment: Compound was tested for inhibition of Adenovirus type 2 proteinase; Not very soluble and inactive at maximum soluble concentration
Human adenovirus 2 [6] = experiment: Inhibitory activity against Adenovirus type 2 proteinase; showed no inhibitory activity

Q: With `CC(C)C[C@H](NC(=O)C(F)(F)F)C(=O)N[C@@H](C)C(=O)NCC(=O)NCC#N` as the compound, how does the Inhibition (Human adenovirus 2 [1]) read?
A: 50%

Q: What about the IC50 (Human adenovirus 2 [2]) of the same compound?
A: 6900 µM

Q: For `CC(C)C[C@H](NC(=O)OCc1ccccc1)C(=O)N[C@@H](C)C(=O)NCC(=O)NCC#N`, which Ki (Human adenovirus 2 [3]) is on record?
A: 16 µM

Q: What about the Inhibition (Human adenovirus 2 [1]) of the same compound?
A: 95%

Q: And the IC50 (Human adenovirus 2 [2])?
A: 10 µM

Q: Which Ki (Human adenovirus 2 [3]) does the source give for `COC(CNC(=O)CNC(=O)[C@H](C)NC(=O)[C@H](CC(C)C)NC(=O)OCc1ccccc1)OC` here?
A: 380 µM

Q: What about the Inhibition (Human adenovirus 2 [1]) of the same compound?
A: 59%

Q: What about the IC50 (Human adenovirus 2 [2]) of the same compound?
A: 400 µM

Q: `COC(CNC(=O)CNC(=O)[C@H](C)NC(=O)[C@H](CC(C)C)NC(=O)OC(C)(C)C)OC` was tested. Which Inhibition (Human adenovirus 2 [1]) did it give?
A: 59%

Q: And the IC50 (Human adenovirus 2 [2])?
A: 1800 µM

Q: With `C[C@H](NC(=O)C(F)(F)F)C(=O)NCC(=O)NCC#N` as the compound, how does the Inhibition (Human adenovirus 2 [1]) read?
A: 5%

Q: With `N#CCNC(=O)CNC(=O)C(F)(F)F` as the compound, how does the Inhibition (Human adenovirus 2 [4]) read?
A: 0%

Q: `Cl.N#CCN` was tested. Which Inhibition (Human adenovirus 2 [4]) did it give?
A: 0%

Q: Which Inhibition (Human adenovirus 2 [1]) does the source give for `CC(C)C[C@H](NC(=O)OC(C)(C)C)C(=O)N[C@@H](C)C(=O)NCC(=O)NCC(=O)OC(C)(C)C` (Boc-LAGG-OtBu) here?
A: 40%

Q: For `CC(C)C[C@H](NC(=O)OCc1ccccc1)C(=O)N[C@@H](C)C(=O)NCC(=O)NCC(N)=O` (Cbz-LAGG-NH2), which Inhibition (Human adenovirus 2 [5]) is on record?
A: 0%

Q: Which Inhibition (Human adenovirus 2 [5]) does the source give for `CNC(=O)CNC(=O)CNC(=O)[C@H](C)NC(=O)[C@H](CC(C)C)NC(=O)OCc1ccccc1` (Cbz-LAGG-NHMe) here?
A: 0%

Q: With `CC(C)C[C@H](NC(=O)OCc1ccccc1)C(=O)N[C@@H](C)C(=O)NCC(=O)NCC(=O)N(C)C` (Cbz-LAGG-NMe2) as the compound, how does the Inhibition (Human adenovirus 2 [4]) read?
A: 0%

Q: `CCN(C)C(=O)CNC(=O)CNC(=O)[C@H](C)NC(=O)[C@H](CC(C)C)NC(=O)OCc1ccccc1` (Cbz-LAGG-NMeEt) was tested. Which Inhibition (Human adenovirus 2 [4]) did it give?
A: 0%

Q: `CCOC(=O)CNC(=O)CNC(=O)[C@H](C)NC(=O)[C@H](CC(C)C)NC(=O)OCc1ccccc1` (Cbz-LAGG-OEt) was tested. Which Inhibition (Human adenovirus 2 [1]) did it give?
A: 67%

Q: For `CC(C)C[C@H](NC(=O)OCc1ccccc1)C(=O)N[C@@H](C)C(=O)NCC(=O)NCC(=O)O` (Cbz-LAGG-OH), which Inhibition (Human adenovirus 2 [6]) is on record?
A: 0%

Q: With `COC(=O)CNC(=O)CNC(=O)[C@H](C)NC(=O)[C@H](CC(C)C)NC(=O)OCc1ccccc1` (Cbz-LAGG-OMe) as the compound, how does the Inhibition (Human adenovirus 2 [1]) read?
A: 72%

Q: `CON(C)C(=O)CNC(=O)CNC(=O)[C@H](C)NC(=O)[C@H](CC(C)C)NC(=O)OCc1ccccc1` (Cbz-LAGG-{N(Me)OMe}) was tested. Which Inhibition (Human adenovirus 2 [4]) did it give?
A: 0%

Q: Which Inhibition (Human adenovirus 2 [4]) does the source give for `CC(C)C[C@H](N)C(=O)N[C@@H](C)C(=O)NCC(=O)NCC(N)=O` (H-LAGG-NH2) here?
A: 0%

Q: How did the Inhibition (Human adenovirus 2 [4]) turn out when `CNC(=O)CNC(=O)CNC(=O)[C@H](C)NC(=O)[C@@H](N)CC(C)C` (H-LAGG-NHMe) was run?
A: 0%
